In PMC8963254, “Effects of Lysine N-ζ-Methylation in Ultrashort Tetrabasic Lipopeptides (UTBLPs) on the Potentiation of Rifampicin, Novobiocin, and Niclosamide in Gram-Negative Bacteria” (Antibiotics, 2022):
≈ marks a conversion by molar mass, not a printed value. Where “and” joins values, the source holds several entries; their conditions need not be identical. Identical values can stand only once.

Key:
[1] = system: P. aeruginosa PA259-96196; test: microbe, parasite or virus in culture; format: cell-based, Pseudomonas aeruginosa; settings: Pseudomonas aeruginosa, PA25996196, 18 h; P. aeruginosa 259-96196; read-out: MICs of various antibiotics
Procedure: (§1) The in vitro antibacterial activity of the UTBLPs was assessed against wild-type and clinically isolated bacterial strains. To obtain the MIC of the compounds, the microbroth dilution susceptibility assay was performed according to the Clinical and Laboratory Standards Institute (CLSI, Wayne, PA, USA) guidelines and as previously described. Briefly, the compounds at varying concentrations were incubated with bacterial inoculum (5 × 10^5 CFU/mL final concentration) at 37 °C for 18 h. Growth in the form of turbidity was confirmed using an EMax Plus microplate reader (Molecular Devices, San Jose, CA, USA) at 590 nm.

[2] = system: P. aeruginosa PA262-101856; test: microbe, parasite or virus in culture; format: cell-based, Pseudomonas aeruginosa; settings: Pseudomonas aeruginosa, PA262101856, 18 h; P. aeruginosa 262-101856; read-out: MICs of various antibiotics
Procedure: as §1

[3] = system: A. baumannii AB027; test: microbe, parasite or virus in culture; format: cell-based, Acinetobacter baumannii; settings: Acinetobacter baumannii, 18 h; A. baumannii AB027; read-out: MICs of various antibiotics
Procedure: as §1

[4] = system: E. coli 94393; test: microbe, parasite or virus in culture; format: cell-based, Escherichia coli; settings: Escherichia coli, 18 h; E. coli 94393 (mcr-1 +); read-out: MICs of various antibiotics
Procedure: as §1

[5] = system: E. coli 94474; test: microbe, parasite or virus in culture; format: cell-based, Escherichia coli; settings: Escherichia coli, 18 h; E. coli 94474 (mcr-1 +); read-out: MICs of various antibiotics
Procedure: as §1

[6] = system: K. pneumoniae 113250; test: microbe, parasite or virus in culture; format: cell-based, Klebsiella pneumoniae; settings: Klebsiella pneumoniae, 18 h; K. pneumoniae 113250; read-out: MICs of various antibiotics
Procedure: as §1

[7] = system: P. aeruginosa PA259-96196; format: cell-based, Pseudomonas aeruginosa; settings: rifampicin alone
Procedure: (§2) The synergy of the UTBLPs with various antibiotics was assessed using checkerboard assay as previously described. Briefly, the combination of antibiotic and OMP at varying concentrations were incubated with bacterial inoculum (5 × 10^5 CFU/mL final concentration) at 37 °C for 18 h. Growth in the form of turbidity was confirmed using an EMax Plus microplate reader (Molecular Devices, Union City, CA, USA) at 590 nm. Fractional inhibitory concentration index (FICI) was used to evaluate the interaction between the antibiotic and the OMP. FICI is the sum of the FIC of the antibiotic and the FIC of the OMP. The FIC value is calculated by dividing the MIC of the agents in combination by the MIC of the agent alone. FICI ≤ 0.5 is synergistic, 0.5 < x ≤ 4 is additive, and >4 is antagonistic.

[8] = system: P. aeruginosa PA262-101856; format: cell-based, Pseudomonas aeruginosa; settings: rifampicin alone
Procedure: as §2

[9] = system: P. aeruginosa PAO1; format: cell-based, Pseudomonas aeruginosa; settings: rifampicin alone
Procedure: as §2

[10] = system: A. baumannii 92247; format: cell-based, Acinetobacter baumannii; settings: rifampicin alone
Procedure: as §2

[11] = system: A. baumannii AB027; format: cell-based, Acinetobacter baumannii; settings: rifampicin alone
Procedure: as §2

[12] = system: A. baumannii ATCC 17978; format: cell-based, Acinetobacter baumannii; settings: rifampicin alone
Procedure: as §2

[13] = system: E. coli 94393; format: cell-based, Escherichia coli; settings: rifampicin alone
Procedure: as §2

[14] = system: E. coli 94474; format: cell-based, Escherichia coli; settings: rifampicin alone
Procedure: as §2

[15] = system: E. coli ATCC 25922; format: cell-based, Escherichia coli; settings: rifampicin alone
Procedure: as §2

[16] = system: E. cloacae 118564; format: cell-based, Enterobacter cloacae; settings: rifampicin alone
Procedure: as §2

[17] = system: K. pneumoniae 113250; format: cell-based, Klebsiella pneumoniae; settings: rifampicin alone
Procedure: as §2

[18] = system: E. cloacae 118564; test: microbe, parasite or virus in culture; format: cell-based, Enterobacter cloacae; settings: Enterobacter cloacae, 18 h; E. cloacae 118564; read-out: MICs of various antibiotics
Procedure: as §1

[19] = system: A. baumannii AB92247; test: microbe, parasite or virus in culture; format: cell-based, Acinetobacter baumannii; settings: Acinetobacter baumannii, AB92247, 18 h; A. baumannii 92247; read-out: MICs of various antibiotics
Procedure: as §1

MIC [1] [µg/mL] | MIC [2] [µg/mL] | MIC [3] [µg/mL] | MIC [4] [µg/mL] | MIC [5] [µg/mL] | MIC [6] [µg/mL] | MICantibiotic [7] [µg/mL] | MICantibiotic [8] | MICantibiotic [9] | MICantibiotic [10] | MICantibiotic [11] [µg/mL] | MICantibiotic [12] | MICantibiotic [13] [µg/mL] | MICantibiotic [14] | MICantibiotic [15] | MICantibiotic [16] [µg/mL] | MICantibiotic [17] | MIC [18] [µg/mL] | MIC [19] [µg/mL] | Compound
32 (≈ 107 µM) | 32 (≈ 107 µM) | 32 (≈ 107 µM) | 0.25 (≈ 0.835 µM) | 0.25 (≈ 0.835 µM) | 0.25 (≈ 0.835 µM) |  |  |  |  |  |  |  |  |  |  |  |  |  | C[C@@H](O)[C@H]1C(=O)N2C(C(=O)O)=C(SCCN=CN)C[C@H]12 [IMI, imipenem]
8 (≈ 14.3 µM) | 8 (≈ 14.3 µM) | 0.5 (≈ 0.895 µM) | 0.5 (≈ 0.895 µM) | 1 (≈ 1.79 µM) | 1 (≈ 1.79 µM) |  |  |  |  |  |  |  |  |  |  |  |  |  | CN(C)[C@@H]1C(O)=C(C(N)=O)C(=O)[C@@]2(O)C(O)=C3C(=O)c4c(O)c(NC(=O)CN5CCCC5)cc(F)c4C[C@H]3C[C@@H]12 [ERC, eravacycline]
 |  |  |  |  |  | 16 | 512 µg/mL and 1024 µg/mL | 16 µg/mL and 8 µg/mL | 1 µg/mL and 2 µg/mL | 1 | 1 µg/mL and 2 µg/mL | 4 | 4 µg/mL and 8 µg/mL | 4 µg/mL and 2 µg/mL | 8 | 16 µg/mL and 8 µg/mL |  |  | CO[C@H]1/C=C/O[C@@]2(C)Oc3c(C)c(O)c4c(O)c(c(/C=N/N5CCN(C)CC5)c(O)c4c3C2=O)NC(=O)/C(C)=C\C=C\[C@H](C)[C@H](O)[C@@H](C)[C@@H](O)[C@@H](C)[C@H](OC(C)=O)[C@@H]1C [Rifampicin, rifampicin]
32 (≈ 73.5 µM) | 32 (≈ 73.5 µM) |  | ≤ 0.12 | ≤ 0.12 | ≤ 0.12 |  |  |  |  |  |  |  |  |  |  |  | ≤ 0.12 |  | C[C@H]1[C@H](NC(=O)/C(=N\OC(C)(C)C(=O)O)c2csc(N)n2)C(=O)N1S(=O)(=O)O [AZT, aztreonam]
32 (≈ 54.6 µM) | 32 (≈ 54.6 µM) | 4 (≈ 6.83 µM) | 0.25 (≈ 0.427 µM) | 1 (≈ 1.71 µM) |  |  |  |  |  |  |  |  |  |  |  |  |  | 0.25 (≈ 0.427 µM) | CN(C)c1cc(NC(=O)CNC(C)(C)C)c(O)c2c1C[C@H]1C[C@H]3[C@H](N(C)C)C(O)=C(C(N)=O)C(=O)[C@@]3(O)C(O)=C1C2=O [TGC, tigecycline]
256 (≈ 708 µM) | 64 (≈ 177 µM) | 8 (≈ 22.1 µM) | 1 (≈ 2.77 µM) | 32 (≈ 88.6 µM) | 0.125 (≈ 0.346 µM) |  |  |  |  |  |  |  |  |  |  |  |  |  | C[C@H]1COc2c(N3CCN(C)CC3)c(F)cc3c(=O)c(C(=O)O)cn1c23 [LEV, levofloxacin]
256 (≈ 548 µM) | 1020 (≈ 2190 µM) |  | ≤ 0.5 | 32 (≈ 68.4 µM) | ≤ 0.5 |  |  |  |  |  |  |  |  |  |  |  | 1 (≈ 2.14 µM) |  | NC[C@H]1O[C@H](O[C@H]2[C@H](O)[C@@H](O[C@H]3O[C@H](CO)[C@@H](O)[C@H](N)[C@H]3O)[C@H](N)C[C@@H]2N)[C@H](N)C[C@@H]1O [TOB, tobramycin]
64 (≈ 115 µM) | 64 (≈ 115 µM) | 1 (≈ 1.8 µM) | 4 (≈ 7.19 µM) | 16 (≈ 28.7 µM) | 2 (≈ 3.59 µM) |  |  |  |  |  |  |  |  |  |  |  |  |  | CN(C)c1cc(CNCC(C)(C)C)c(O)c2c1C[C@H]1C[C@H]3[C@H](N(C)C)C(O)=C(C(N)=O)C(=O)[C@@]3(O)C(O)=C1C2=O [OMC, omadacycline]
> 16 | > 16 | 8 (≈ 19.9 µM) | 1 (≈ 2.49 µM) | 16 (≈ 39.9 µM) | ≤ 0.06 |  |  |  |  |  |  |  |  |  |  |  | 0.12 (≈ 0.299 µM) |  | COc1c(N2C[C@@H]3CCCN[C@@H]3C2)c(F)cc2c(=O)c(C(=O)O)cn(C3CC3)c12 [MOX, moxifloxacin]
32 (≈ 69.9 µM) | 64 (≈ 140 µM) | 0.25 (≈ 0.546 µM) | 2 (≈ 4.37 µM) | 64 (≈ 140 µM) | 2 (≈ 4.37 µM) |  |  |  |  |  |  |  |  |  |  |  |  | 0.125 (≈ 0.273 µM) | CN(C)c1ccc(O)c2c1C[C@H]1C[C@H]3[C@H](N(C)C)C(O)=C(C(N)=O)C(=O)[C@@]3(O)C(O)=C1C2=O [MIN, minocycline]
